The text below walks through data of ChEMBL document CHEMBL1137795, “Bioactive compounds from aquatic and terrestrial sources” (J Nat Prod, 1990).

The term IC50 denotes the point on the concentration scale where inhibition reaches its midpoint. Read a high IC50 as weaker potency in that assay. One may read the T/C as the ratio of treated to control.

One assay deals with L1210. Put plainly: Cytotoxicity against mouse L1210 cells. Format: functional, cell-based.
Assay [1] has as its system Vesicular stomatitis virus. Put plainly: Antiviral activity against VSV assessed as reduction in plaque formation at 20 ng. Format: functional, organism-based.
The subject of assay [2] is Human alphaherpesvirus 1. Put plainly: Antiviral activity against HSV1 assessed as reduction in plaque formation at 780 ng. The assay is classed as functional, organism-based.
The test system of assay [3] is Human alphaherpesvirus 1. Description: Antiviral activity against HSV1 assessed as reduction in plaque formation at 20 ng. Format: functional, organism-based.
The test system of assay [4] is Vesicular stomatitis virus. Description: Antiviral activity against VSV assessed as reduction in plaque formation at 100 ng. The assay is classed as functional, organism-based.
Assay [5] relates to Human alphaherpesvirus 1. Put plainly: Antiviral activity against HSV1 assessed as reduction in plaque formation at 30 ng. The assay is classed as functional, organism-based.
In assay [6] the test system is Vesicular stomatitis virus. Put plainly: Antiviral activity against VSV assessed as reduction in plaque formation at 30 ng. The assay is classed as functional, organism-based.
Assay [7] has as its system Vesicular stomatitis virus. Description: Antiviral activity against VSV assessed as reduction in plaque formation at 100 ug. The assay is classed as functional, organism-based.
Assay [8] concerns Human alphaherpesvirus 1. Description: Antiviral activity against HSV1 assessed as reduction in plaque formation at 100 ug. The assay is classed as functional, organism-based.
Assay [9] deals with Human alphaherpesvirus 1. Description: Antiviral activity against HSV1 assessed as reduction in plaque formation at 10 ug. Format: functional, organism-based.
Assay [10] relates to P388. Description: In vivo antitumor activity against mouse P388 cells at 3.8 ug/kg relative to control. Format: functional.
The subject of another assay is B16. Description: In vivo antitumor activity against mouse B16 cells at 10 ug/kg relative to control. Format: functional.
Assay [11] deals with P388. Description: In vivo antitumor activity against mouse P388 cells at 250 ug/kg relative to control. Format: functional.
Assay [12] deals with P388. Put plainly: In vivo antitumor activity against mouse P388 cells at 15 ug/kg relative to control. Format: functional.

Converted amounts (≈) assume the structure as drawn. The source made the active and inactive calls. The calls are words filed in the database; no cut-off is given here. Numbered stars: 1 amine (or outer) side, 2 acyl side, 3 side chain; on linkers, the order of the positions; unused ones are H or OH. Bridge positions count the residues as written; N and C are the ends. Square brackets hold non-standard residues; d marks the D form. Peptide text beside a SMILES is read from it. X1 = CC[C@H](C)[C@@H](N[*:1])[C@@H](O)CC(=O)O[C@H](C(=O)[C@H](C)C(=O)[*:2])C(C)C; NMeY = CN[C@@H](Cc1ccc(O)cc1)C(=O)O; dNMeL = CN[C@H](CC(C)C)C(=O)O; Lac = C[C@H](O)C(=O)O

`CC[C@H](C)[C@@H]1NC(=O)[C@@H](NC(=O)[C@@H](CC(C)C)N(C)C(=O)[C@@H]2CCCN2C(=O)[C@H](C)OC(C)=O)[C@@H](C)OC(=O)[C@H](Cc2ccc(OC)cc2)N(C)C(=O)[C@@H]2CCCN2C(=O)[C@H](CC(C)C)NC(=O)[C@@H](C)C(=O)[C@H](C(C)C)OC(=O)C[C@@H]1OC(C)=O` displayed an IC50 in the assay on L1210 of 1.6 ng/mL (≈ 1.34 nM).
As for `CC(=O)O[C@H]1C[C@]2(C)[C@H]3[C@H](O)C(=O)[C@]4(C)[C@@H](c5ccc(=O)oc5)CC[C@]4(O)[C@@H]3CC[C@]2(O)C[C@H]1OC(C)=O`, the AC50 result in assay [1] was “Not Active”. Moreover, the result in the assay on Human alphaherpesvirus 1 [2] was Active. Moreover, the result in the assay on Human alphaherpesvirus 1 [3] was inactive.
For the molecule `CC(=O)O[C@@H]1C[C@@]2(O)CC[C@@H]3[C@H]([C@H](O)C(=O)[C@]4(C)[C@@H](c5ccc(=O)oc5)CC[C@]34O)[C@@]2(C)C[C@@H]1O`, the outcome in assay [4] was inactive.
As to `CC(=O)O[C@H]1C[C@]2(C)[C@H]3[C@H](O)C(=O)[C@]4(C)[C@@H](c5ccc(=O)oc5)CC[C@]4(O)[C@@H]3CC[C@]2(O)C[C@H]1O`, in [4], the result was inactive.
In the case of `CC(=O)O[C@H]1C[C@]2(C)[C@H]3[C@H](O)C(=O)[C@]4(C)[C@@H](c5ccc(=O)oc5)CC[C@]4(O)[C@@H]3CC[C@]2(O)C[C@H]1OC(=O)C(C)C`, the result (with Human alphaherpesvirus 1 [5]; in assay [6]) was inactive.
As for `CCC(=O)O[C@@H]1C[C@@]2(O)CC[C@@H]3[C@H]([C@H](O)C(=O)[C@]4(C)[C@@H](c5ccc(=O)oc5)CC[C@]34O)[C@@]2(C)C[C@@H]1OC(C)=O`, the result (with Human alphaherpesvirus 1 [5]; in assay [4]; in assay [6]) was inactive.
As for `NC(=O)c1ncn([C@@H]2O[C@H](CO)[C@@H](O)[C@H]2O)n1`, the result in assay [7] was Active.
On to `Nc1nc2c(ncn2COCCO)c(=O)[nH]1`, for which the result in the assay with Human alphaherpesvirus 1 [8] and with Human alphaherpesvirus 1 [9] was Active.
Turning to `Nc1ncnc2c1ncn2[C@@H]1O[C@H](CO)[C@@H](O)[C@@H]1O`, the outcome in the assay with Human alphaherpesvirus 1 [8] was Active. In the assay on Human alphaherpesvirus 1 [9], the outcome was inactive.
In the assay with L1210, `CC[C@H](C)[C@H]1NC(=O)[C@@H](NC(=O)[C@@H](CC(C)C)NC)[C@@H](C)OC(=O)[C@H](Cc2ccc(OC)cc2)N(C)C(=O)[C@@H]2CCCN2C(=O)[C@H](CC(C)C)NC(=O)[C@@H](C)C(=O)[C@H](C(C)C)OC(=O)C[C@@H]1O` [DIDEMNIN A] (H-[dNMeL]T[X1]LP[NMeY](Me); ester 2-C) yielded an IC50 of 14 ng/mL (≈ 14.8 nM).
The molecule `CC[C@H](C)[C@H]1NC(=O)[C@@H](NC(=O)[C@@H](CC(C)C)N(C)C(=O)[C@H](C)O)[C@@H](C)OC(=O)[C@H](Cc2ccc(OC)cc2)N(C)C(=O)[C@@H]2CCCN2C(=O)[C@H](CC(C)C)NC(=O)[C@@H](C)C(=O)[C@H](C(C)C)OC(=O)C[C@@H]1O` [DIDEMNIN C] (H-[Lac][dNMeL]T[X1]LP[NMeY](Me); ester 3-C) yielded an IC50 in the assay on L1210 of 11 ng/mL (≈ 10.8 nM).
With `CC[C@H](C)[C@@H]1NC(=O)[C@@H](NC(=O)[C@@H](CC(C)C)N(C)C(=O)[C@@H]2CCCN2C(=O)[C@H](C)OC(=O)[C@H](CCC(=O)O)NC(=O)[C@H](CCC(N)=O)NC(=O)[C@H](CCC(N)=O)NC(=O)[C@@H](N)CCC(N)=O)[C@@H](C)OC(=O)[C@H](Cc2ccc(OC)cc2)N(C)C(=O)[C@@H]2CCCN2C(=O)[C@H](CC(C)C)NC(=O)[C@@H](C)C(=O)[C@H](C(C)C)OC(=O)C[C@@H]1O` [DIDEMNIN D], in the assay with L1210, the IC50 stood at 5 ng/mL (≈ 3.08 nM).
For the molecule `CC[C@H](C)[C@@H]1NC(=O)[C@@H](NC(=O)[C@@H](CC(C)C)N(C)C(=O)[C@@H]2CCCN2C(=O)[C@H](C)OC(=O)[C@H](CCC(=O)O)NC(=O)[C@H](CCC(N)=O)NC(=O)[C@@H](N)CCC(N)=O)[C@@H](C)OC(=O)[C@H](Cc2ccc(OC)cc2)N(C)C(=O)[C@@H]2CCCN2C(=O)[C@H](CC(C)C)NC(=O)[C@@H](C)C(=O)[C@H](C(C)C)OC(=O)C[C@@H]1O` [DIDEMNIN E], it took 3 ng/mL (≈ 2 nM) to reach half-maximal inhibition with L1210 (IC50).
Take `CC[C@H](C)[C@@H]1NC(=O)[C@@H](NC(=O)[C@@H](CC(C)C)N(C)C=O)[C@@H](C)OC(=O)[C@H](Cc2ccc(OC)cc2)N(C)C(=O)[C@@H]2CCCN2C(=O)[C@H](CC(C)C)NC(=O)[C@@H](C)C(=O)[C@H](C(C)C)OC(=O)C[C@@H]1O` [DIDEMNIN G]: the IC50 with L1210 amounted to 6 ng/mL (≈ 6.18 nM).
The same measure, in the same setting: next, `CCCCCCC[C@@H](O)CC(=O)N[C@@H](CCC(N)=O)C(=O)N[C@@H](CCC(N)=O)C(=O)N[C@@H](CCC(=O)O)C(=O)O[C@@H](C)C(=O)N1CCC[C@H]1C(=O)N(C)[C@H](CC(C)C)C(=O)N[C@@H]1C(=O)N[C@@H]([C@@H](C)CC)[C@@H](O)CC(=O)O[C@@H](C(C)C)C(=O)[C@H](C)C(=O)N[C@@H](CC(C)C)C(=O)N2CCC[C@H]2C(=O)N(C)[C@@H](Cc2ccc(OC)cc2)C(=O)O[C@@H]1C` [DIDEMNIN X]: 4.4 ng/mL (≈ 2.64 nM); `CCCCCCC[C@@H](O)CC(=O)N[C@@H](CCC(N)=O)C(=O)N[C@@H](CCC(N)=O)C(=O)N[C@@H](CCC(N)=O)C(=O)N[C@@H](CCC(=O)O)C(=O)O[C@@H](C)C(=O)N1CCC[C@H]1C(=O)N(C)[C@H](CC(C)C)C(=O)N[C@@H]1C(=O)N[C@@H]([C@@H](C)CC)[C@@H](O)CC(=O)O[C@@H](C(C)C)C(=O)[C@H](C)C(=O)N[C@@H](CC(C)C)C(=O)N2CCC[C@H]2C(=O)N(C)[C@@H](Cc2ccc(OC)cc2)C(=O)O[C@@H]1C` [DIDEMNIN Y]: 5.6 ng/mL (≈ 3.12 nM).
For the molecule `CC[C@H](C)[C@@H]1NC(=O)[C@@H](NC(=O)[C@@H](CC(C)C)NC)[C@@H](C)OC(=O)[C@H](Cc2ccc(OC)cc2)N(C)C(=O)[C@@H]2CCCN2C(=O)[C@H](CC(C)C)NC(=O)[C@@H](C)C(O)[C@H](C(C)C)OC(=O)C[C@@H]1O` (some centres undefined) [DIHYDRODIDEMNIN A], in the assay on L1210, half-maximal inhibition (IC50) required 520 ng/mL (≈ 550 nM).
With `COc1cc2c(cc1O)CCN[C@]21CS[C@@H]2c3c(OC(C)=O)c(C)c4c(c3[C@H](COC1=O)N1[C@@H]2[C@@H]2N[C@@H](Cc3cc(C)c(OC)c(O)c32)[C@@H]1O)OCO4` [ECTEINASCIDIN 729], the T/C in the assay on P388 [10] came to 214%; with B16 it was 246%.
As for `COc1cc2c(cc1O)CCN[C@]21CS[C@@H]2c3c(OC(C)=O)c(C)c4c(c3[C@H](COC1=O)N1C[C@@H]3Cc5cc(C)c(OC)c(O)c5[C@H]([C@H]21)N3C)OCO4` [ECTEINASCIDIN 745], the T/C with P388 [11] turned out to be 111%. The same molecule gave an IC50 in the assay with L1210 of 88 ng/mL (≈ 118 nM).
In the assay on L1210, `CC[C@H](C)[C@@H]1NC(=O)[C@@H](N2CN(C)[C@H](CC(C)C)C2=O)[C@@H](C)OC(=O)[C@H](Cc2ccc(OC)cc2)N(C)C(=O)[C@@H]2CCCN2C(=O)[C@H](CC(C)C)NC(=O)[C@@H](C)C(=O)[C@H](C(C)C)OC(=O)C[C@@H]1O` [METHYLENE DIDEMNIN A] showed an IC50 of 6.5 ng/mL (≈ 6.8 nM).
Molecule `CC[C@H](C)[C@@H]1NC(=O)[C@@H](NC(=O)[C@@H](CC(C)C)N(C)C(C)=O)[C@@H](C)OC(=O)[C@H](Cc2ccc(OC)cc2)N(C)C(=O)[C@@H]2CCCN2C(=O)[C@H](CC(C)C)NC(=O)[C@@H](C)C(=O)[C@H](C(C)C)OC(=O)C[C@@H]1OC(C)=O` [N,O-DIACETYLDIDEMNIN A] showed an IC50 with L1210 of 15 ng/mL (≈ 14.6 nM).
Still for that read-out and setting: the result for `CC[C@H](C)[C@@H]1NC(=O)[C@@H](NC(=O)[C@@H](CC(C)C)N(C)C(C)=O)[C@@H](C)OC(=O)[C@H](Cc2ccc(OC)cc2)N(C)C(=O)[C@@H]2CCCN2C(=O)[C@H](CC(C)C)NC(=O)[C@@H](C)C(=O)[C@H](C(C)C)OC(=O)C[C@@H]1O` [N-ACETYLDIDEMNIN A] reads 2.4 ng/mL (≈ 2.44 nM); that for `CC[C@H](C)[C@@H]1NC(=O)[C@@H](NC(=O)[C@@H](CC(C)C)N(C)C(=O)[C@@H]2CCCN2C(=O)[C@H](C)OC(C)=O)[C@H](C)OC(=O)[C@H](Cc2ccc(OC)cc2)N(C)C(=O)[C@@H]2CCCN2C(=O)[C@H](CC(C)C)NC(=O)[C@@H](C)C(=O)[C@H](C(C)C)OC(=O)C[C@@H]1O` [NORDIDEMNIN B], 7.8 ng/mL (≈ 6.76 nM).
For the molecule `COc1cc2c(cc1O)CCN[C@]21CS[C@@H]2c3c(OC(C)=O)c(C)c4c(c3[C@H](COC1=O)N1[C@@H]2[C@H]2c3c(cc(C)c(OC)c3O)C[C@@H]([C@@H]1O)N2C)OCO4` [TRABECTEDIN], in the assay with P388 [12], the T/C is on record as 167%. The molecule further showed an IC50 with L1210 of 0.5 ng/mL (≈ 0.656 nM).
